From US20140179766A1, “IDENTIFICATION OF THROMBOSIS OR BLEEDING RISK IN AN INDIVIDUAL WITH AND WITHOUT ANTI-PLATELET THERAPY” (ROYAL COLLEGE OF SURGEONS IN IRELAND, priority 2011, published 2014) come the findings set out here.

Structures are written as SMILES.

In this test the test system is 11-dehydro-thromboxane B2 (TxM). The experiment in a line: Urinary TxM (11-dehydro-thromboxane B2) by liquid chromatography/tandem mass spectrometry in participants of the HACVD sub-study of ASCOT. In kind it is in vivo, human. The note with it: SNP association with TxM seen only in patients not taking aspirin. The protocol:
The genetic determinants of urinary TxM were investigated. 540 participants in the Hypertension Associated Cardiovascular Disease (HACVD) sub-study of ASCOT gave urine samples at two separate time-points. TxM was measured using liquid chromatography/tandem mass spectrometry, expressed as pg/mg creatinine to correct for urine concentration. All subjects were genotyped on the CVD50K chip, a cardiovascular-specific chip with >50,000 SNPs. Usual quality control measures were applied. Linear regression analysis was performed, assuming an additive genetic model, adjusting for the covariates; age, sex, smoking habit, diabetes, systolic blood pressure, BMI, HDL, LDL, aspirin and anti-hypertensive regimen.
Most interesting of all was the observation that the association of TxM with the 21 PPARGC1β gene SNPs was almost totally driven by the patients not taking aspirin (beta-values range; +184-+392 pg/mg p-values range; 0.00002-0.06), whilst associations between these same 21 SNPs and TxM amongst aspirinated subjects were in large part not statistically significant (beta-values range; −10-+134 pg/mg p-values range; 0.02-0.97).

On to `CC(=O)Oc1ccccc1C(=O)O` [aspirin], for which the “Effect on excess production of thromboxane in carriers of PPARGC1β genetic variants” value is “completely, or in large part, blocks the excess production of thromboxane”.
